Patent US20070248995A1, “Molecules” (priority 2004, published 2007)
Like-named read-outs stand apart in the source and are kept apart here.

Columns and labels:
rat NK1r = target: T1, rat NK1r (Rattus norvegicus, UniProt P14600); assay: Inhibition of NK1 receptor activation, intracellular Ca2+ mobilization (FLIPR) in CHO cells; assay type: cell-based; conditions: pKB ± SD, submaximal (60%) concentration of Substance P
T1 construct: expressed in transfected cells
Procedure: (§1) The activity of a compound to inhibit NK1r activation measured as NK1r-mediated increase in intracellular Ca^2+ was assessed by the following procedure:
(§2) Before the FLIPR assay the cells of each 96-well plate were loaded with the Ca^2+-sensitive dye Fluo-3 (TEFLABS 0116) at 4 μM in a loading media consisting of Nut Mix F12 (HAM) with Glutamax I, 22 mM HEPES, 2.5 mM Probenicid (Sigma P-8761) and 0.04% Pluronic F-127 (Sigma P-2443) and kept in the dark for 1 hour in a 37° C. CO2-incubator. The cells were then washed three times in assay buffer (Hanks balanced salt solution (HBSS) containing 20 mM HEPES, 2.5 mM Probenicid and 0.1% BSA) using a multi-channel pipette leaving them in 150 μl at the end of the last wash. Serial dilutions of a test compound in assay buffer (final DMSO concentration kept below 1%) were automatically pipetted by FLIPR (Fluorometric Imaging Plate Reader) into each test well and the fluorescence intensity was recorded (excitation 488 nm and emission 530 nm) by the FLIPR CCD camera for a 2-min pre-incubation period. 50 μl of the Substance P (NK1 specific), NKA (NK2 specific), or Pro-7-NKB (NK3 specific) agonist solution (final concentration equivalent to an approximate EC60 concentration) was then added by FLIPR into each well already containing 200 μl assay buffer (containing the test compound or vehicle) and the fluorescence was continuously monitored for another 2 min. The response was measured as the peak relative fluorescence after agonist addition and IC50s were calculated from ten-point concentration-response curves for each compound. The IC50s were then converted to pKB values with the following formula: KB=IC50/1+(EC60 conc. of agonist used in assay/EC50 agonist) pKB=−log KB Binding Assay for NK1 Receptors

gerbil NK1r [1] = target: T2, gerbil NK1r (Meriones unguiculatus, UniProt Q5DUB1)
T2 sequence (Q5DUB1 whole entry): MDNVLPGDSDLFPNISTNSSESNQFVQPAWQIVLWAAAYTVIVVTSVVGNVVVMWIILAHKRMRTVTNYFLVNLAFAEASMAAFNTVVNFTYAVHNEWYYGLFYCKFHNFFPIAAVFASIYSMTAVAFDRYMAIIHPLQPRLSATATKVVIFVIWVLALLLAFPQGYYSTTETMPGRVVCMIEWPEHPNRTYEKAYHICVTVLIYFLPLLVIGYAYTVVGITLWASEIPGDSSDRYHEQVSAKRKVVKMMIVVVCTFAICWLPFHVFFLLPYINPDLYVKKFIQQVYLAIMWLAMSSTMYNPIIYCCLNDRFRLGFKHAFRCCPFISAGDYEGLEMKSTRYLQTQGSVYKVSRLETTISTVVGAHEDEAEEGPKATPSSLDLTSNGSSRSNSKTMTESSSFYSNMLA
Procedure: Cells were detached with Accutase® solution, harvested in PBS containing 5% FBS by centrifugation, washed twice in PBS and resuspended to a concentration of 1×10^8 cells/ml in Tris-HCl 50 mM, KCl 300 mM, EDTA-N2 10 mM pH 7.4 (4° C.). Cell suspensions were homogenized with a UltraTurrax 30 s 12.000 rpm. The homogenates were centrifuged at 38,000×g (4° C.) and the pellet resuspended in Tris-HCl 50 mM pH 7.4. The homogenization was repeated once and the homogenates were incubated on ice for 45 min. The homogenates were again centrifuged as described above and resuspended in Tris-HCl 50 mM pH 7.4. This centrifugation step was repeated 3 times in total. After the last centrifugation step the pellet was resuspended in Tris-HCl 50 mM and homogenized with Dual Potter, 10 strokes to a homogenous solution, and aliquots were removed for protein determination. Membranes were aliquoted and frozen at −80° C. until use.
The radioligand binding assay was performed at room temperature in 96-well microtiter plates (No-binding Surface Plates, Corning 3600) with a final assay volume of 200 μl/well in incubation buffer (50 mM Tris buffer (pH 7.4 RT) containing 0.1% BSA, 40 mg/L Bacitracin, complete EDTA-free protease inhibitor cocktail tablets 20 pills/L (Roche) and 3 mM MnCl2).
Competition binding curves were done by adding increasing amounts of the test compound. […]
(§3) The membranes were then collected by rapid filtration on Filtermat B(Wallac), presoaked in 0.1% BSA and 0.3% Polyethyleneimine (Sigma P-3143), using a Micro 96 Harvester (Skatron Instruments, Norway). […] Meltilex scintillator sheets were melted on to filters using a Microsealer (Wallac, Finland) and the filters were counted in a β-Liquid Scintillation Counter (1450 Microbeta, Wallac, Finland).
(§4) The Ki value for the unlabeled ligand was calculated using the Cheng-Prusoff equation (Biochem. Pharmacol. 22:3099-3108, 1973), where L is the concentration of the radioactive ligand used and Kd is the affinity of the radioactive ligand for the receptor, determined by saturation binding. […]

gerbil NK1r [2] = target: T2, gerbil NK1r; assay: Inhibition of NK1 receptor activation, intracellular Ca2+ mobilization (FLIPR) in CHO cells; assay type: cell-based; parameters: Full-length PCR was performed using primers #NK1-16 and #NK1-17; expressed in transfected cells; conditions: pKB ± SD, submaximal (60%) concentration of Substance P
Procedure: as §1, §2

gerbil NK1r [3] = target: T2, gerbil NK1r; assay: Gerbil foot tap (GFT, NK1r-specific test model); assay type: in vivo, Mongolian gerbil; parameters: tissue Charles River, Germany (animals); host or cells: living Mongolian gerbil, central nervous system (in vivo); conditions: from brain homogenate concentration of antagonist at 50% inhibition, used in the Cheng-Prusoff equation
Text: Male Mongolian gerbils (60-80 g) were purchased from Charles River, Germany. On arrival, they were housed in groups of ten, with food and water ad libitum in temperature- and humidity-controlled holding rooms. The animals were allowed at least 7 days to acclimatize to the housing conditions before experiments. Each animal was used only once and killed immediately after the experiment by heart punctuation or a lethal overdose of pentobarbital sodium.
Gerbils were anaesthetized with isoflurane. Potential CNS-permeable NK1 receptor antagonists were administered intraperitoneally, intravenously or subcutaneously.
The gerbils were lightly anaesthetized using isoflurane and a small incision was made in the skin over bregma. 10 pmol of ASMSP, a selective NK1receptor agonist, was administered icv in a volume of 5 μl using a Hamilton syringe with a needle 4 mm long. The wound was clamped shut and the animal was placed in a small plastic cage and allowed to wake up. The cage was placed on a piece of plastic tubing filled with water and connected to a computer via a pressure transducer. The number of hind feet taps was recorded.

human NK1r [4] = target: T3, human NK1r (Homo sapiens, UniProt P25103)
T3 sequence (P25103 whole entry): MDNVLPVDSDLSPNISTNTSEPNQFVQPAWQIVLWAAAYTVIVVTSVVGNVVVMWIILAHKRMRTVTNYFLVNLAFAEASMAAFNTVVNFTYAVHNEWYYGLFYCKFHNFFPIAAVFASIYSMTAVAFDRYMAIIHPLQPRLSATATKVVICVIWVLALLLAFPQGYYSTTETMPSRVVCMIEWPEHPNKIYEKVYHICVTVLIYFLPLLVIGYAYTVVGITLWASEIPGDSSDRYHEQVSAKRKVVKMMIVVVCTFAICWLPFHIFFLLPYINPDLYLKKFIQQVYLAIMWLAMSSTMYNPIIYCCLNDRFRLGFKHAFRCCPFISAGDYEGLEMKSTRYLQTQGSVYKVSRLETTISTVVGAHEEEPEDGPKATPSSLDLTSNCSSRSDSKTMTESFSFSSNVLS
Procedure: Cells were detached with Accutase® solution, harvested in PBS containing 5% FBS by centrifugation, washed twice in PBS and resuspended to a concentration of 1×10^8 cells/ml in Tris-HCl 50 mM, KCl 300 mM, EDTA-N2 10 mM pH 7.4 (4° C.). Cell suspensions were homogenized with a UltraTurrax 30 s 12.000 rpm. The homogenates were centrifuged at 38,000×g (4° C.) and the pellet resuspended in Tris-HCl 50 mM pH 7.4. The homogenization was repeated once and the homogenates were incubated on ice for 45 min. The homogenates were again centrifuged as described above and resuspended in Tris-HCl 50 mM pH 7.4. This centrifugation step was repeated 3 times in total. […]
as §3, §4

human NK1r [5] = target: T3, human NK1r; assay: Inhibition of NK1 receptor activation, intracellular Ca2+ mobilization (FLIPR) in CHO cells; assay type: cell-based; parameters: expressed in transfected cells; conditions: pKB ± SD, submaximal (60%) concentration of Substance P
Procedure: as §1
CO2-incubator. The cells were then washed three times in assay buffer (Hanks balanced salt solution (HBSS) containing 20 mM HEPES, 2.5 mM Probenicid and 0.1% BSA) using a multi-channel pipette leaving them in 150 μl at the end of the last wash. […] 50 μl of the Substance P (NK1 specific), NKA (NK2 specific), or Pro-7-NKB (NK3 specific) agonist solution (final concentration equivalent to an approximate EC60 concentration) was then added by FLIPR into each well already containing 200 μl assay buffer (containing the test compound or vehicle) and the fluorescence was continuously monitored for another 2 min. The response was measured as the peak relative fluorescence after agonist addition and IC50s were calculated from ten-point concentration-response curves for each compound. The IC50s were then converted to pKB values with the following formula: KB=IC50/1+(EC60 conc. of agonist used in assay/EC50 agonist) pKB=−log KB Binding Assay for NK1 Receptors

T1 sequence (P14600 whole entry): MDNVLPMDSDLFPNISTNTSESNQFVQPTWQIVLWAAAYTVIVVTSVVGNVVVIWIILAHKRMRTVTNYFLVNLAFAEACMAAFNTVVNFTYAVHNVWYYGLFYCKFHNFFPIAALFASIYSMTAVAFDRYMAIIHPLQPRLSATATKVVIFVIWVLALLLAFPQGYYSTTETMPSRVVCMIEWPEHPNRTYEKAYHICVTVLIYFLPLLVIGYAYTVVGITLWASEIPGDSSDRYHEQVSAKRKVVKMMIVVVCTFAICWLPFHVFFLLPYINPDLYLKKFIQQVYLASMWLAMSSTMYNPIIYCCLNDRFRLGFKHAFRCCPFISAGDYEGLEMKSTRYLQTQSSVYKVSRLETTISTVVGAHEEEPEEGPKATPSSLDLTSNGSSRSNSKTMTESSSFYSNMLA

| SMILES | Kb (rat NK1r) | Ki (gerbil NK1r [1]) | Kb (gerbil NK1r [2]) | gerbil NK1r pKBapp. (in vivo GFT apparent pKB) (gerbil NK1r [3]) | rat NK1r pKB (rat NK1r) | Ki (human NK1r [4]) | human NK1r pKB (human NK1r [5]) | Ki (gerbil NK1r [1]; read-out: Gerbil NK1 Ki, competition binding, CHO cell membranes) | gerbil NK1r pKB (gerbil NK1r [2]) |
| --- | --- | --- | --- | --- | --- | --- | --- | --- | --- |
| COc1ccccc1CN[C@H]1CCCN[C@H]1c1ccccc1 [CP 99994] | 1230 nM | 0.81 nM | 1.15 nM | 8.1 | – | – | – | – | – |
| C[C@@H](O[C@H]1OCCN(Cc2n[nH]c(=O)[nH]2)[C@H]1c1ccc(F)cc1)c1cc(C(F)(F)F)cc(C(F)(F)F)c1 [MK 869, aprepitant] | 55 nM | 0.16 nM | 1.55 nM | 8.9 | – | – | – | – | – |
| CN(C[C@@H](CCN1CCC(c2ccccc2[S@+](C)[O-])CC1)c1ccc(Cl)c(Cl)c1)C(=O)c1cc(C#N)cc2ccccc12 [ZD 6021] | – | – | – | 8.5 | <6 | 0.31 nM | 8.53 ± 0.41 | 0.38 nM | 9.00 ± 0.25 |
